Patent US20080220078A1, “Pharmaceutical Formulations” (Vectura Limited, priority 2004, published 2008)
Several values for one entry are separate records, joined by “and”; a condition that tells them apart may be missing. Equal entries are not always repeated.

Tests used:
Format in all cases: physicochemical
[1] = Zeta potential (Zetasizer 3000HS, in cyclohexane); details: average of 10 measurements
Experimental: In addition, the powders were studied using the Zetasizer 3000HS instrument (Malvern Instruments Ltd, UK.) Each sample was tested in cyclohexane, and zeta potential measurements were obtained. Zetasizer measures the zeta potential. This is a measure of the electric potential on a particle in suspension in the hydrodynamic plane of shear. The results are summarized as follows: Each result is an average of 10 measurements.

[2] = XPS surface analysis of powders
From the text: The aim of the analysis is to identify the presence of magnesium stearate on the surface of a model of a co-micronised active agent. […] The aim was to show the contrast in surface coating efficiency. The model material, representing the micronised active agent particles, was micronised lactose.
The powders have been analyzed using both TOF-SIMS and XPS. TOF-SIMS provides a mass spectrum of the outermost 1 nm of the surface, and is used here to asses whether the magnesium stearate coverage of the lactose is complete or in patches. XPS provides a spectrum representative of the outermost 10 nm of the surface of the sample and is used here in comparison to the TOF-SIMS data to assess the depth of coverage of the magnesium stearate on the lactose surface.
XPS is a surface analytical technique that can quantify the amount of different chemical species in the outermost 10 nm of a surface. In the simplest form of analysis, XPS measures the relative amount of each element present. Quantitative elemental identification can be achieved down to 1 atom in 1000. AU elements present can be detected with the exception of hydrogen. Elemental analysis may be essential in determining the amount of a surface contaminant or to quantify any surface species with a unique elemental type.

[3] = Density Measurements (poured and tapped density)
Experimental: Approximately 5 g of material was placed in a measuring cylinder and the volume noted. The poured density was calculated. The measuring cylinder was tapped 100 times and the volume noted. Tapping was repeated to constant volume and the tapped density calculated. The equipment used was a […] Volumeter STA […].

[4] = single measurements (Measurement 1, Measurement 2)

| Compound | Zeta Potential [1] [mV] | Area % of C 1s Spectral Envelope, C—C ([2]; Mean) [%] | Area % of C 1s Spectral Envelope, C—O ([2]; Mean) [%] | Area % of C 1s Spectral Envelope, O—C—O ([2]; Mean) [%] | Area % of C 1s Spectral Envelope, O—C═O ([2]; Mean) [%] | Relative Atomic Percentage Composition, C ([2]; Mean) [%] | Relative Atomic Percentage Composition, Mg ([2]; Mean) [%] | Relative Atomic Percentage Composition, O ([2]; Mean) [%] | Area % of C 1s Spectral Envelope, C—C [2, 4] | Area % of C 1s Spectral Envelope, C—O [2, 4] | Area % of C 1s Spectral Envelope, O—C—O [2, 4] | Area % of C 1s Spectral Envelope, O—C═O [2, 4] | Relative Atomic Percentage Composition, C [2, 4] | Relative Atomic Percentage Composition, O [2, 4] | Number of Taps to Constant Volume ([3]; Stampf Volumeter STA V2003) | Poured Density ([3]; approximately 5 g powder in measuring cylinder) [g/ml] | Tapped Density ([3]; tapped to constant volume) [g/mL] |
| --- | --- | --- | --- | --- | --- | --- | --- | --- | --- | --- | --- | --- | --- | --- | --- | --- | --- |
| OC[C@H]1O[C@@H](O[C@H]2[C@H](O)[C@@H](O)C(O)O[C@@H]2CO)[C@H](O)[C@@H](O)[C@H]1O (some centres unmarked) [Lactose] | 35.5 | 5.5 | 64.3 | 20.0 | 8.7 | 54.9 | <0.1 | 45.1 | 6.4% and 4.4% | 70.9% and 57.8% | 18.0% and 22.0% | 4.7% and 12.8% | 54.47% and 55.29% | 45.43% and 44.71% | – | – | – |
| Salbutamol sulphate | – | – | – | – | – | – | – | – | – | – | – | – | – | – | 200 | 0.19 | 0.24 |
